Patent publication US5827872A, “Xenomins novel heterocyclic compounds with antimicrobial and antneoplastic properties” (priority 1996, dated 1998)
In brackets after ≈: the same amount, converted by molar mass.

Experiments:
Format in all cases: cell-based
Bacillus subtilis = test: MIC by standard dilution method (NCCLS 1990), Bacillus subtilis; details: 35° C., 24 h incubation
Protocol: (§1) To determine minimum inhibitory concentration (MIC) of the xenomins, the standard dilution method was used as outlined by The National Committee for Clinical Laboratory Standards (1990) for testing antibiotics. The tests were coducted at 35° C. and the MICs were determined after 24 h incubation.

[1] = tested on: Staphylococcus aureus ATCC 29213; test: MIC by standard dilution method (NCCLS 1990), Staphylococcus aureus ATCC 29213; details: ATCC29213, 35° C., 24 h incubation
Protocol: as §1

S. aureus 0012 = test: MIC by standard dilution method (NCCLS 1990), S. aureus 0012 (methicillin-resistant clinical isolate); details: Staphylococcus aureus; S. aureus 0012, clinical isolate of methicillin-resistant strain; 35° C., 24 h incubation
Protocol: as §1
(§2) *clinical isolates of methicillinresistant strain.

S. aureus 0017 = test: MIC by standard dilution method (NCCLS 1990), S. aureus 0017 (methicillin-resistant clinical isolate); details: Staphylococcus aureus; S. aureus 0017, clinical isolate of methicillin-resistant strain; 35° C., 24 h incubation
Protocol: as §1, §2

[2] = tested on: Candida tropicalis CBS 94; test: MIC by standard dilution method (NCCLS 1990), Candida tropicalis CBS 94; details: CBS94, 35° C., 24 h incubation
Protocol: as §1

[3] = tested on: Cryptococcus neoformans ATCC14117; test: MIC by standard dilution method (NCCLS 1990), Cryptococcus neoformans ATCC14117; details: 35° C., 24 h incubation
Protocol: as §1

human colon cancer HT-29 = test: Antineoplastic activity in vitro, method of Skehan et al. (1990), HT-29; details: HT29 cells
Protocol: (§3) The antineoplastic activities of xenomins have been determined in vitro in cell cultures of human colon cancer HT-29, breast cancer MCF-7 and cervical cancer Hela. The tests were carried out using the method described by Skehan et al. (1990).

breast cancer MCF-7 = test: Antineoplastic activity in vitro, method of Skehan et al. (1990), MCF-7; details: Homo sapiens, MCF7, MCF-7 cells
Protocol: as §3

cervical cancer Hela = test: Antineoplastic activity in vitro, method of Skehan et al. (1990), Hela; details: Homo sapiens, Hela cells
Protocol: as §3

MIC (Bacillus subtilis) | MIC [1] | MIC (S. aureus 0012) | MIC (S. aureus 0017) | MIC [2] | MIC [3] | IC50 (human colon cancer HT-29) | IC50 (breast cancer MCF-7) | IC50 (cervical cancer Hela) | Structure (SMILES)
5 mg/L (≈ 16.6 µM) | 20 mg/L (≈ 66.6 µM) | 10 mg/L (≈ 33.3 µM) | 10 mg/L (≈ 33.3 µM) | 100 mg/L (≈ 333 µM) | 13 mg/L (≈ 43.3 µM) | 0.14 mg/L (≈ 0.466 µM) | 1.37 mg/L (≈ 4.56 µM) | 0.24 mg/L (≈ 0.799 µM) | CCCCCC(=O)Nc1c2[s+]([O-])scc-2n(C)c1=O (single isomer, unassigned) [Xenomin 1]
41 mg/L (≈ 130 µM) | 41 mg/L (≈ 130 µM) | 41 mg/L (≈ 130 µM) | 41 mg/L (≈ 130 µM) | > 100 mg/L | 25 mg/L (≈ 79.5 µM) | 0.34 mg/L (≈ 1.08 µM) | 1.74 mg/L (≈ 5.53 µM) | 0.65 mg/L (≈ 2.07 µM) | CC(C)CCCC(=O)Nc1c2[s+]([O-])scc-2n(C)c1=O (single isomer, unassigned) [Xenomin 2]
